{
  "source": "patent US20230321030A1",
  "about": "“KAEMPFEROL AGLYCONE-CONTAINING EXTRACT” (OTSUKA PHARMACEUTICAL CO., LTD., priority 2020, published 2023)",
  "type_in_all_cases": "in vivo",
  "key": {"[1]": {"tested_on": "broccoli sprouts", "test": "L-tyrosine or L-phenylalanine addition effect 1, broccoli sprouts", "settings": "for kaempferol content: aqueous solution 25-400 mg/L, 10 ml/day for 7 days, dark; for kaempferol content / quercetin content: 21 vol% oxygen; for quercetin content: regardless of the addition", "protocol": "(§1) The amount of kaempferol and quercetin was measured after all of the glycosides of kaempferol and quercetin were hydrolyzed and converted into aglycones. The actual procedure was as follows. After each sample was milled, 2.0 g of the milled product was weighed. After 40 mL of 70% ethanol was added, the sample was suspended with a Polytron homogenizer at room temperature at 20.000 rpm for 1 minute. 1 mL of the suspension was dispensed and weighed into a glass test tube, and 1 mL of 2 N hydrochloric acid was added. After being mixed with a vortex, the mixture was heated at 100° C. for 30 minutes with a heat block. After heating was completed, the resulting product was cooled with ice for at least 5 minutes. After cooling, 5 mL of hexane was added, and the mixture was shaken horizontally 20 times. After centrifugation at 3.000 rpm for 5 minutes at 4° C. with a cooled centrifuge, the upper layer was discarded. 5 mL of ethyl acetate was added, and the mixture was shaken horizontally with a shaker at room temperature at 250 rpm for 10 minutes. After centrifugation with a large cooled centrifuge at 4° C. at 3.000 rpm for 5 minutes, the upper layer was collected in a glass test tube for drying. 5 mL of ethyl acetate was added again to the lower layer, and the mixture was shaken horizontally with a shaker at room temperature at 250 rpm for 10 minutes. After centrifugation at 3.000 rpm at 4° C. for 5 minutes, the upper layer was collected in a glass test tube for drying. The collected upper layer was dried with nitrogen at 60° C. with a nitrogen spray dryer. After drying was complete, 1 mL of an aqueous solution of 70% ethanol was added, and the mixture was treated with an ultrasonic generator for 1 minute to dissolve it with a vortex. After being passed through a 0.45-µm filter, the solution was subjected to HPLC to perform KMP aglycone analysis, thereby determining the amount of KMP aglycones.\n(§2) Aqueous solutions containing L-phenylalanine in a concentration of 25, 50, 100, 200, or 400 mg/L, aqueous solutions containing L-tyrosine in a concentration of 25, 50, 100, 200, or 400 mg/L, and aqueous solutions containing both L-tyrosine and L-phenylalanine in a concentration of 25, 50, 100, 200, or 400 mg/L were prepared. As test plants, radish sprouts and broccoli sprouts were prepared. The test plants were given one of the aqueous solutions in an amount of 10 ml/day for 7 days and grown in the dark in an oxygen concentration of 21 vol%. After 7 days, the content of kaempferol and quercetin was measured for each test plant in the same manner as in section B1-2 above. […] Additionally, quercetin was not detected in broccoli sprouts regardless of the addition of L-tyrosine and L-phenylalanine."}, "[2]": {"tested_on": "radish sprouts", "test": "L-tyrosine or L-phenylalanine addition effect 2, radish sprouts at 21 or 17.5 vol% oxygen", "settings": "25 or 50 mg/L, 7 days; for kaempferol content: in every oxygen concentration (21 or 17.5 vol%); for rate of increase in the kaempferol content: low-oxygen concentration (17.5 vol%)", "protocol": "as §1\nAqueous solutions containing L-phenylalanine in a concentration of 25 or 50 mg/L, and aqueous solutions containing L-tyrosine in a concentration of 25 or 50 mg/L were prepared. As a test plant, radish sprouts were prepared. The test plant was given one of the aqueous solution in an amount of 10 ml/day for 7 days and grown in the dark in an oxygen concentration of 21 vol% or 17.5 vol%. After 7 days, the content of kaempferol and quercetin was measured in the same manner as in section B1-2 above."}, "[3]": {"tested_on": "radish sprouts", "test": "L-tyrosine or L-phenylalanine addition effect 1, radish sprouts", "settings": "for effect on the quercetin content / kaempferol content: 21 vol% oxygen; for kaempferol content: aqueous solution 25-400 mg/L, 10 ml/day for 7 days, dark", "protocol": "as §1, §2"}},
  "data": [
    {"molecule": "N[C@@H](Cc1ccccc1)C(=O)O", "note": "[L-phenylalanine]", "values": [
      {"measurement": "kaempferol content", "setting": "[1]", "value": "increased"},
      {"measurement": "quercetin content", "setting": "[1]; 7 days", "value": "not detected"},
      {"measurement": "kaempferol content", "setting": "[2]", "value": "increased"},
      {"measurement": "rate of increase in the kaempferol content", "setting": "[2]", "value": "significantly increased"},
      {"measurement": "effect on the quercetin content", "setting": "[3]; 25-400 mg/L, 7 days", "value": "no significant effect"},
      {"measurement": "kaempferol content", "setting": "[3]", "value": "increased"}
    ]},
    {"molecule": "N[C@@H](Cc1ccc(O)cc1)C(=O)O", "note": "[L-tyrosine]", "values": [
      {"measurement": "effect on plant growth (total length and weight)", "setting": "[1]; 25-400 mg/L, 7 days", "value": "no clear effect"},
      {"measurement": "kaempferol content", "setting": "[1]", "value": "increased"},
      {"measurement": "quercetin content", "setting": "[1]; 7 days", "value": "not detected"},
      {"measurement": "effect on plant growth (total length and weight)", "setting": "[2]; 21 or 17.5 vol% oxygen", "value": "no clear effect"},
      {"measurement": "kaempferol content", "setting": "[2]", "value": "increased"},
      {"measurement": "rate of increase in the kaempferol content", "setting": "[2]", "value": "significantly increased"},
      {"measurement": "effect on plant growth (total length and weight)", "setting": "[3]; 25-400 mg/L, 7 days", "value": "no clear effect"},
      {"measurement": "effect on the quercetin content", "setting": "[3]; 25-400 mg/L, 7 days", "value": "no significant effect"},
      {"measurement": "kaempferol content", "setting": "[3]", "value": "increased"}
    ]}
  ]
}
